Results: paper PMC3618516, “A Systematic Screen of FDA-Approved Drugs for Inhibitors of Biological Threat Agents” (PLoS ONE, 2013)
Read-outs that look alike come from different tables or passages of the source.

Experiments:
[1] = system: EBOV virus-like particles; type: cell-based, Ebola virus
[2] = system: EBOV; type: cell-based, Ebola virus
[3] = system: EBOV; test: microbe, parasite or virus in culture; type: cell-based, Ebola virus; settings: Zaire ebolavirus; for EC50: read-out: EC50, EBOV Replication; for EC90: read-out: EC90, EBOV Replication
[4] = system: LASV; type: cell-based, Lassa virus
[5] = system: LASV GP-pseudotyped vesicular stomatitis virus; test: microbe, parasite or virus in culture; type: cell-based, Lassa virus
[6] = system: MARV GP-pseudotyped vesicular stomatitis virus; test: microbe, parasite or virus in culture; type: cell-based, Marburg virus; settings: Vesicular stomatitis virus; for EC50: read-out: EC50, MARV Entry; for EC90: read-out: EC90, MARV Entry
[7] = system: EBOV GP-pseudotyped vesicular stomatitis virus; test: microbe, parasite or virus in culture; type: cell-based, Ebola virus; settings: Zaire ebolavirus; for EC50: read-out: EC50, EBOV Entry; for EC90: read-out: EC90, EBOV Entry
[8] = system: MARV; test: organism not typed; type: cell-based, Marburg virus; settings: for EC50: read-out: EC50, MARV Replication; for EC90: read-out: EC90, MARV Replication
[9] = system: EBOV; type: cell-based, Ebola virus; remark: listed apart in the source
[10] = in vivo; settings: male, Balb/c, mouse, ip, 90 mg/kg
[11] = mouse, in vivo
[12] = system: Coxiella burnetii; test: microbe, parasite or virus in culture; type: cell-based; settings: Vero, 168 h, read-out: Coxiella burnetii ICR (% protection)
[13] = system: Bacillus anthracis; design: species or system Balb/c mice; settings: in vivo
[14] = system: Bacillus anthracis; type: cell-based; settings: 50 µM
[15] = system: Bacillus anthracis; test: microbe, parasite or virus in culture; type: cell-based; settings: J774.A1, 15 h, read-out: Bacillus anthracis ICR (% protection)
[16] = system: Francisella tularensis; type: cell-based; settings: 50 µM
[17] = system: Francisella tularensis; test: microbe, parasite or virus in culture; type: cell-based; settings: J774.A1, 15 h, read-out: Fransciella tularensis ICR (% protection)
[18] = cited from earlier work
[19] = Vesicular stomatitis virus, HEK-293T, 50 µM, read-out: LASV VPEN (% activity)
[20] = HEK-293T, read-out: MASV VPEN (% activity)
[21] = HEK-293T, read-out: EBOV VPEN (% activity)

Row | Compound | effect on number of VLPs bound per cell [1] | EC50 [3] | EC90 [3] | EC50 [6] | EC90 [6] | EC50 [7] | EC90 [7] | EC50 [8] | EC90 [8] | EBOV VR ([2]; 50 µM) | LASV VR ([4]; 50 µM) | inhibition at 50 µM [5, 19] | inhibition at 50 µM [6, 20] | inhibition at 50 µM [7, 21] | inhibition of growth at 50 µM [12] | Bacillus anthracis Broth (% protection) [14] | inhibition at 50 µM [15] | Fransciella tularensis Broth (% protection) [16] | inhibition at 50 µM [17] | other results
1 | CCN(CC)Cc1cc(Nc2ccnc3cc(Cl)ccc23)ccc1O [Amodiaquine] | no significant difference in binding | 8.4 µM | 17 µM | 2.3 µM | 6.5 µM | 2.6 µM | 8 µM | 8.3 µM | 16 µM |  |  |  |  |  |  |  |  |  |  | EBOV VR ([2]; 10 µM): −; LASV VR ([4]; 10 µM): −; inhibition at 10 µM ([5]; Vesicular stomatitis virus, HEK-293T, 10 µM, read-out: LASV VPEN (% activity)): 51%; inhibition at 10 µM ([6]; HEK-293T, 10 µM, read-out: MASV VPEN (% activity)): 97%; inhibition at 10 µM ([7]; HEK-293T, 10 µM, read-out: EBOV VPEN (% activity)): 99%
2 | CCN(CC)CCCC(C)Nc1ccnc2cc(Cl)ccc12 (stereo not drawn) [Chloroquine] | no significant difference in binding | 16 µM | 25 µM | 5.5 µM | 24 µM | 4.7 µM | 43 µM | 15 µM | 21 µM | + | − | 34% | 97% | 97% |  |  |  |  |  | co-localization of virus particles with EEA1 / LAMP1 [9]: most particles were now associated with EEA1 and very few particles were co-localized with LAMP1; AUC [10]: 23000 ng·h/mL; Tmax [10]: 0.5 h; half-life [10]: ~7 h; Cmax ([10]; Cmax): 5330 ng/mL; Apparent Css ([11]; male, Balb/c): ~ 2.5 μg/ml; apparent steady state concentration ([11]; male, Balb/c): 2,500 ng/mL; time to apparent steady state after initiating treatment ([11]; male, Balb/c): 35 to 40 h; survival of mice on repeat dosing (tolerability) [11]: all mice survived
3 | CC[C@H]1OC(=O)[C@H](C)[C@@H](O[C@H]2C[C@@](C)(OC)[C@@H](O)[C@H](C)O2)[C@H](C)[C@@H](O[C@@H]2O[C@H](C)C[C@H](N(C)C)[C@H]2O)[C@](C)(O)C[C@@H](C)[C@@H]2N[C@@H](COCCOC)O[C@H]([C@H]2C)[C@]1(C)O [Dirithromycin] |  |  |  |  |  |  |  |  |  | − | − | -11% | 91% | 99% | 0% | + | 92% | + | 88% | protection of mice against BA infection (% of the mice) ([13]; mouse): 20%; LASV VPEN (% activity) ([5]; 50 µM): no activity
4 | CCn1cc(C(=O)O)c(=O)c2cc(F)c(N3CCNC(C)C3)c(F)c21 (stereo not drawn) [Lomefloxacin] |  |  |  |  |  |  |  |  |  |  |  |  |  |  | 100% | + | 95% | + | 98% | efficacy in preventing mouse death following BA infection (rank) [13]: most efficacious drug; maximum concentration (Cmax) ([18]; following a 400 mg dose in humans): 2000 to 4000 ng/mL; bioavailability ([18]; humans): 95–98%
